These results are taken from patent US20170029451A1, “BRANCHED CHAIN ACYCLIC NUCLEOSIDE PHOSPHONATE ESTERS AND METHODS OF SYNTHESIS AND USES THEREOF” (CHIMERIX, INC., priority 2013, published 2017).

Each structure is given as a SMILES string. Like-named read-outs stand apart in the source and are kept apart here. Where only a bound is given, the exact number is not on record here.

For one series, the system named is Epstein-Barr virus. The experiment in a line: DNA Hybridization Assay for EBV in Akata cells. The settings on record: human gammaherpesvirus 4, read-out: Efficacy DNA Hybridization Assay (EC50). In kind it is cell-based. On the procedure: Akata cells latently infected with EBV were obtained from John Sixbey. The GS strain of HHV-6A was obtained through the NIH AIDS Research and Reference Reagent Program.
Each experiment that evaluated the antiviral activity of the compounds included both positive and negative control compounds to ensure the performance of each assay. Concurrent assessment of cytotoxicity was also performed for each study at equivalent levels of compound exposure. When sufficient material was available, multiple assays were performed for each compound evaluation to obtain statistical data.
Assays for EBV were performed in Akata cells that were induced to undergo a lytic infection with 50 μg/ml of a goat anti-human IgG antibody by standard methods. Experimental compounds were diluted in round bottom 96-well plates to yield concentrations ranging from 20 to 0.016 μM. Akata cells were added to the plates at a concentration of 4×10^4 cells per well and incubated for 72 h. For HHV-6 assays, compounds were serially diluted in 96-well plates then 1×10^4 uninfected HSB-2 or Molt-3 cells were added to each well. Infection was initiated by adding HHV-6A infected HSB-2 cells, or HHV-6B infected Molt-3 cells, at a ratio of approximately 1 infected cell for every 10 uninfected HSB-2 cells or Molt-3 cells respectively and incubated for 7 d at 37° C. […]

Series [1] can be described thus: in vitro. The conditions noted are these: human.
The nature of series [2]: in vitro. The settings on record: human. The source holds these as a separate data set.
In series [3] the test system is Herpes Simplex Virus 1 (Strain E-377). The experiment in a line: Plaque reduction assay, HSV-1 in human foreskin fibroblast cells. The settings on record: Human alphaherpesvirus 1; Strain E-377, human foreskin fibroblast cells. In kind it is cell-based.
The test system of series [4] is human foreskin fibroblast cells. The experiment in a line: Neutral red cytotoxicity assay in human foreskin fibroblast cells. The conditions noted are these: read-out: VACV CC50, μm, parallel to VACV assay (second printing of Table 4).
Series [5] has as its system Vaccinia Virus (Strain Copenhagen). Description: microbe, parasite or virus in culture. In kind it is cell-based. The conditions noted are these: Orthopoxvirus vaccinia, Fibroblast, read-out: VACV EC50, μM.
In series [6] the test system is Cowpox Virus (Strain Brighton). The experiment in a line: microbe, parasite or virus in culture. In kind it is cell-based. The settings on record: Fibroblast, read-out: CPXV EC50, μM.
The test system of series [7] is Human Cytomegalovirus (HCMV). The experiment in a line: HCMV EC50 in MRC-5 cells (qPCR of intracellular CMV DNA). In kind it is cell-based. The conditions noted are these: Human betaherpesvirus 5, MRC5. The method, then: Costar 96-well tissue culture plates were seeded with 20,000 MRC-5 cells/well in EMEM containing 2% Hyclone Standard Fetal Bovine Serum and 1% Hyclone Penicillin and Streptomycin. Outer wells were not used to minimize the edge-effect produced by extended incubations. Cells were inoculated with HCMV at an MOI of 0.01. Serial dilutions of test compounds were added to the cells and plates were incubated for 7 days at 37° C. in 5% CO2. […] Culture medium was gently removed from infected cells after the 7-day incubation. The cells were rinsed twice with ice-cold PBS, and then freeze/thawed once. Each well was incubated with 200 μL lysis buffer for 2 hours at 55° C. Lysis buffer included 0.5 mg/mL protease K, 50 mM KCl, 10 mM Tris-Cl pH 8.0, 2.5 mM MgCl2, 0.45% IGEPAL, and 0.45% Tween-20 dissolved in DEPC-treated water. Intracellular CMV DNA was measured by quantitative polymerase chain reaction (qPCR) using forward and reverse HCMV PCR primers, and a FAM-labeled probe. Absolute quantitation of viral copy number was performed using a standard curve with dilutions of a HCMV DNA amplicon containing sequences homologous to the amplified fragment. The following qPCR amplification conditions were used: 1 cycle at 95° C. for 10 minutes, followed by 45 cycles of 95° C. for 15 seconds and 60° C. for 60 seconds. The qPCR reactions were performed using an Applied Biosystems 7500 real Time PCR System. Gen 5 software (BioTek Instruments, Inc.) was used to calculate the concentration which inhibited the viral DNA levels of HCMV-infected MRC-5 cells by 50% (EC50).

Series [8] can be described thus: Cytotoxicity (CC50) in MT4 cells. The conditions noted are these: human. In kind it is cell-based. On the procedure:
Costar 96-well tissue culture plates were seeded with 5,000 MT4 cells (NIH AIDS Reagents Program)/well in RPMI (Lonza, Cat 12-11F) containing 10% Hyclone Standard Fetal Bovine Serum (FBS, Cat 5H30088.03), 1% Hyclone Penicillin and Streptomycin (Cat SV30010), and 2 mM Lonza L-Glutamine (Cat 17-605E). Outer wells were not used to minimize the edge-effect produced by extended incubations. Serial dilutions of test compounds were added to the cells and plates were incubated for 6 days at 37° C. in 5% CO2. After 6 days of incubation 40 μL of Cell Titer 96® Aqueous MTS Reagent (Promega, G111) was added as directed by manufacturer to the 200 μL media in each well and incubated at 37° C. until the untreated-cell controls developed an 490 nm absorbance between 1.1 and 1.8. The final absorbance readings were read using a BioTek Synergy 2, and Gen 5 software (BioTek Instruments, Inc.) was used to calculate the concentration which inhibited MT4 cells by 50% (CC50).

Another series has as its system HCMV (Strain AD169). The experiment in a line: Plaque reduction assay, HCMV AD169 in human foreskin fibroblast cells. In kind it is cell-based, Human Cytomegalovirus (HCMV). The settings on record: Human betaherpesvirus 5, AD169, Fibroblast.
In series [9] the test system is HCMV UL54 resistant mutant D542E (HDP-CDV^R). The experiment in a line: microbe, parasite or virus in culture. The conditions noted are these: Human betaherpesvirus 5, Fibroblast. In kind it is cell-based, Human Cytomegalovirus (HCMV).
A further series deals with BKV (Gardner strain). The experiment in a line: BKV EC50 in Vero cells (qPCR of supernatant BKV DNA). In kind it is cell-based, BK virus (BKV). The conditions noted are these: Betapolyomavirus hominis; BKV in Vero cells (Table 7); read-out: BKV EC50. On the procedure: Costar 96-well tissue culture plates were seeded with 10,000 Vero cells/well in DMEM containing 2% Hyclone Standard Fetal Bovine Serum (FBS, Cat 5H30088.03) and 1% Hyclone Penicillin and Streptomycin. Outer wells were not used to minimize the edge-effect produced by extended incubations. Cells were inoculated with 115 BKV DNA copies/cell (ATCC, Gardner strain). Serial dilutions of test compounds were added to the cells and plates were incubated for 10 days at 37° C. in 5% CO2. After the 10-day incubation, 50 μL supernatant was mixed with 50 μL 2× lysis buffer that provided a final concentration 0.5 mg/mL protease K, 50 mM KCl, 10 mM Tris-Cl pH 8.0, 2.5 mM MgCl2, 0.45% IGEPAL, and 0.45% Tween-20 dissolved in DEPC-treated water. Each plate was incubated for 2 hours at 55° C. Supernatant BKV DNA was measured by quantitative polymerase chain reaction (qPCR) using forward and reverse BKV PCR primers, and a FAM-labeled probe. Absolute quantitation of viral copy number was performed using a standard curve with dilutions of a BKV DNA amplicon containing sequences homologous to the amplified fragment. The following qPCR amplification conditions were used: 1 cycle at 95° C. for 10 minutes, followed by 45 cycles of 95° C. for 15 seconds and 60° C. for 60 seconds. The qPCR reactions were performed using an Applied Biosystems 7500 real Time PCR System. Gen 5 software (BioTek Instruments, Inc.) was used to calculate the concentration which inhibited the viral DNA levels of BKV-infected Vero cells by 50% (EC50).

The subject of series [10] is HCMV UL54 resistant mutant 4955^R. The experiment in a line: microbe, parasite or virus in culture. In kind it is cell-based, Human Cytomegalovirus (HCMV). The settings on record: Human betaherpesvirus 5, Fibroblast.
Series [11] relates to HCMV UL54 resistant mutant GDG^RP53. The experiment in a line: microbe, parasite or virus in culture. In kind it is cell-based, Human Cytomegalovirus (HCMV). The settings on record: Human betaherpesvirus 5, Fibroblast.
The test system of series [12] is Influenza virus A/CA/10/2009. Description: microbe, parasite or virus in culture. In kind it is cell-based. The settings on record: unidentified influenza virus, MDCK, read-out: A/CA/10/2009 (EC50, μM).
Series [13] in a line: in vitro. The conditions noted are these: dog.
The test system of series [14] is Influenza virus B/FL/4/2006. Description: microbe, parasite or virus in culture. In kind it is cell-based. The conditions noted are these: unidentified influenza virus, MDCK, read-out: B/FL/4/2006 (EC50, μM).
Where [15] appears, read: Mean XC50 (Table 9), read-out: HCMV EC50.
Setting [16] is: Mean XC50 (Table 9), read-out: MT4 cytotoxicity CC50.

Turning to `Nc1nc2c(ncn2COCCO)c(=O)[nH]1` [Acyclovir, reference compound], the EC50 is 7 µM in the series on Epstein-Barr virus and 2200 nM in [3]. Moreover, the CC50 in “in vitro [1]” and in “in vitro [2]” was more than 100 µM throughout.
`Nc1ccn(C[C@@H](CO)OCP(=O)(O)O)c(=O)n1` [Cidofovir, reference compound]: the CC50 is more than 300 µM in series [4] and more than 300 µM in “in vitro [2]” (CPXV CC50, μM, Human Foreskin Fibroblast Cells, parallel to CPXV assay). The figures for the EC50 in series [5] and in [6] were 22.4 µM and 30.5 µM, respectively.
Turning to `CCCCCCCCCCCCCCCCOCCCOP(=O)(O)CO[C@H](CO)Cn1ccc(=O)[nH]c1=O` [Compound 24], the EC50 in series [7] (setting [15]) turned out to be 8 nM. Also, the CC50 at 6 days in series [8] (setting [16]) amounted to 13500 nM.
`Nc1nc(O)c2ncn(COC(CO)CO)c2n1` [Ganciclovir, reference compound] displayed a CC50 in “in vitro [2]” of more than 100 µM. For the same molecule, the EC50 in the series on HCMV (Strain AD169) (Strain AD169, human foreskin fibroblast cells, read-out: HCMV EC50) was found to be 1500 nM.
Consider `CCCCCCCCCCCCCCCCOCCCOP(=O)(O)CO[C@H](CO)Cn1ccc(N)nc1=O` [HDP-CDV, Hexadecyloxypropyl-Cidofovir, reference compound], for which the EC50 in [9] (read-out: EC50 μM, Virus D542E (HDP-CDV^R), human foreskin fibroblast cells) stood at 0.0295 µM; with BKV (Gardner strain) it was 18 nM; in series [10] (read-out: EC50 μM, Virus 4955^R, human foreskin fibroblast cells) it was 0.0013 µM; in series [7] (HCMV in MRC-5 cells (Table 7), read-out: CMV EC50), 0.4 nM; in [7] (setting [15]) it was 0.3 nM; in series [11] (read-out: EC50 μM, Virus GDG^RP53, human foreskin fibroblast cells) it was 0.0053 µM. Further, the EC50 in the series with HCMV (Strain AD169) (Virus AD169, human foreskin fibroblast cells (Table 3), read-out: EC50) turned out to be 1 nM. For the same molecule, the values for the EC90 in series [9] (read-out: EC90 μM), in series [10] (read-out: EC90 μM) and in series [11] (read-out: EC90 μM) were 0.153 µM, 0.006 µM and 0.0316 µM, respectively. Moreover, the CC50 at 6 days is 60 nM in [8] (MT4 cells (Table 7), read-out: MT4 CC50) and 60 nM in [8] (setting [16]).
For the molecule `CCOC(=O)C1=C[C@@H](OC(CC)CC)[C@H](NC(C)=O)[C@@H](N)C1` [Oseltamivir, reference compound], the figures for the EC50 in [12] and in series [14] were 0.17 µM and 16.2 µM, respectively. This molecule also gave a CC50 in the series “in vitro [13]” of more than 20 µM.
